In US7556794B2, “Pendant fatty acid imaging agents” (Molecular Insight Pharmaceuticals, Inc., priority 2002, dated 2009):

Assay: Tissue distribution (radiometric analysis of excised organs) after tail vein injection of radiolabeled fatty acid analogs in rats
Format: in vivo, Sprague Dawley rats
Conditions: rat
Experimental: Pharmacokinetic characterization was accomplished by radiometric analysis of heart, blood, lung, kidney, liver and other tissue at various times following administration of the 99mTc-labeled fatty acid analogs to rats. […] Six new compounds were evaluated at up to four time points each (5, 15, 60, and 120 minutes) with a minimum of three animals per time point. Non-anesthetized animals were injected with 20-50 μCi in 100 μl via the tail vein and sacrificed at increasing time points post injection. The organs were excised and counted in a gamma counter. Experiments were also conducted to compare the effects of injection media using 10% ethanol, 10% bovine serum albumin and 7% ursodeoxycholic acid on distribution.

In the case of `CC(CCCCCCCCCCCCc1ccc(I)cc1)CC(=O)O` (centres unmarked) [BMIPP], the “Percent injected dose per gram, Blood” value (15-min post injection, blood) was 1.30 ± 0.19 Percent injected dose per gram, the “Percent injected dose per gram, Heart” value (15-min post injection, heart) was 4.60 ± 0.63 Percent injected dose per gram and the “Percent injected dose per gram, Kidneys” value (15-min post injection, kidneys) was 4.09 ± 0.82 Percent injected dose per gram. For the same compound, the “Percent injected dose per gram, Liver” value (15-min post injection, liver) was 2.97 ± 0.56 Percent injected dose per gram, the “Percent injected dose per gram, Lung” value (15-min post injection, lung) was 1.83 ± 0.22 Percent injected dose per gram and the heart-to-blood ratio (at 15 minutes) was 2.2. The heart-to-blood ratio (at 60 minutes) was 1.6, the “blood retention / clearance (in words)” value (blood) was “slow blood clearance” and the “heart accumulation / extraction (in words)” value (heart) was “high extraction into the heart”. For the same compound, the “uptake in the heart” value (heart, at 15 minutes) was 3.49 percent per organ, the “uptake in the heart” value (heart, at 60 minutes) was 1.62 percent per organ and the “less heart uptake with ethanol injection media than with ursodeoxycholic acid” value (heart, 10% ethanol versus 7% ursodeoxycholic acid injection media) was about 75%. The liver activity (liver, end of the 45 minute period (60 minutes)) was 7.2 percent per organ and the liver activity (liver, start of the 45 minute period (15 minutes)) was 19.7 percent per organ.
